Data published in patent US20140336220A1, “COMPOSITION FOR PREVENTING OR TREATING OBESITY COMPRISING REBAMIPIDE” (The Catholic University of Korea Industry-Academic …, priority 2011, published 2014).
“Also recorded” adds a separate entry of the source.

Columns and labels:
[1] = test system: spleen cells; assay: Spleen cell proliferation after aCD3 stimulation, thymidine; type: cell-based, mouse; conditions: FIG. 7B
Method: The spleen was extracted from the mouse of each group and spleen cells 2×10^5 of each mouse were divided into a 96-well plate and stimulated with 0.5 μg/ml of aCD3 and then cultured for 3 days. 16 hours before acquirement, the cells were stimulated with thymidine of […], and then, 16 hours after stimulation, proliferation of the mouse cells was measured.

[2] = test system: Th17 cells; assay: Th17 cell inhibition, flow cytometry of blood and spleen cells; type: cell-based, mouse; conditions: method: pre-treated at 1000 μM
Method: In order to stimulate CD4+ T cells 1×10 separated from the spleen under differentiation conditions of Th17 cells, the CD4+ T cells 1×10 were divided into a 24-well plate coated with 1 μg/Ml of an anti-CD3 antibody and treated with all of 1 μg/mL of an anti-CD28 antibody, 2 ng/ml of TGF-β, 20 ng/ml of IL-6, 10 ng/ml of anti-IL-4, and 10 ng/ml of anti-IFNr together suitable for stimulating Th17 cells. Then, the cells were stimulated for 1 hour. In this case, the cells were pre-treated with a rebamipide compound at a concentration of 1000 μM and cultured for 1 hour. The collected cells were allowed to react with a PerCP-anti-mouse CD4 antibody and a PE-anti-mouse phospho STATS antibody at 4° C. for 30 minutes in a dark field and washed with FACs buffer (0.002% sodium azide, 0.2% BSA/PBS). These cells were washed twice with Perm Wash buffer and re-floated on the FACs buffer and then analyzed with a flow cytometer.

[3] = test system: animal model with collagen induced arthritis (CIA); assay: Histological inspection of joints in collagen induced arthritis model; type: in vivo, mouse; conditions: 300 mg/kg oral, after 61 days, H&E, Toluidine blue, safranin O, FIG. 12
Method: Each animal model with collagen induced arthritis (CIA) was orally administered with rebamipide with a dose of 300 mg/kg. After 61 days, euthanasia was administered to the experimental animals. Then, hind legs of the mouse were fixed with 10% formalin, and compounds of calcium were removed from the bone and paraffin was coated. A section of the joint (7 μm) was prepared and stained with hematoxylin and eosin. Further, in order to check damage of cartilage, a histological inspection was carried out by staining with Toluidine blue and safranin O.

[4] = test system: animal model with obesity induced arthritis; assay: Immunohistochemistry staining of inflammatory cytokines in joint; type: in vivo, mouse; conditions: immunochemical staining, vs obesity induced arthritis group, FIG. 14
Method: In order to check whether or not rebamipide of the present disclosure specifically can inhibit inflammatory cytokines such as IL-17, IL-6, IL-1b, TNF-a, and Nitrothyrosine in the joint of an animal model with obesity induced arthritis, the joint of a mouse was treated by the same method as illustrated in Example <9-2>. Then, inflammatory cytokines were stained by with an immunochemical staining method and analyzed with an optical microscope.

[5] = test system: adipocyte; assay: Real time PCR of adipogenic and brown fat genes in differentiated adipocyte; type: cell-based; conditions: FIG. 9
Method: The inventors of the present disclosure differentiated adipocyte by the method of Example <7-1>. 3 days after differentiation, differentiation of adipocyte was maintained with replacement with a culture medium added with dexamethasone and insulin once per two days, and after 4 days, the cells were treated with trizol and RNA was separated therefrom and cDNA was synthesized. Then, by real time PCR, mRNA expression of c/EBP, adiponectin, Leptin aP2, GLTU, and Cytochrome C1 as proadipogenic transcription factors was observed.

[6] = test system: STAT3; assay: STAT3 inhibition in spleen of obesity induced arthritis model, confocal microscope; type: in vivo, mouse; conditions: FIG. 16
Excerpt: In order to investigate whether or not rebamipide can inhibit STAT3, the inventors of the present disclosure extracted the spleen from a mouse in each group, and embedded a frozen section (optimal cutting temperature compound: O.C.T. compound) using the extracted spleen and rapidly cooled the tissue in liquid nitrogen and attached the tissue on a slide to a thickness of 7 μm using a cryo microtome. Then, the section was fixed with acetone and coated with 10% normal goat serum and blocked from a non-specific reaction for 30 minutes. Thereafter, the section was reacted at 4° C. overnight with primary antibodies, that is, FITC-labeled anti-mFoxp3 Ab, FITC labeled anti-mCD4 Ab, PE-labeled anti-p-STAT3 s727 Ab, and PE-labeled anti-p-STAT3 y705 Ab, diluted with PBS (pH 7.5) at a ratio of 1:50 for analyzing STAT3. On the next day, the section was washed with a PBS solution, and a stained tissue was analyzed with a confocal microscope.

[7] = test system: animal models induced with obesity; assay: Serum glucose, triglyceride and cholesterol by autoanalyzer; type: in vivo, mouse; conditions: oral administration, obese mice, FIG. 3
Method: Further, an experimental animal group was etherized and blood was collected from the heart. The collected blood was put into a centrifuge tube and centrifuged at 3000 rpm for 20 minutes, so that the serum was separated and kept in a freezer until it was analyzed at −70° C. Contents of glucose, triglyceride, total cholesterol, HDL-cholesterol, and LDL-cholesterol in the serum were analyzed using an autoanalyzer (Kuadro, Italy).

[8] = well treated with 20 μm of rebamipide

## O=C(NC(Cc1cc(=O)[nH]c2ccccc12)C(=O)O)c1ccc(Cl)cc1 (stereo not drawn) [rebamipide, 2-(4-chlorobenzoylamino)-3-[2(1H)-quinolinon-4-yl]propionic acid]
[1]; 100 mg/kg oral, compared between doses
  effect on proliferation of spleen cells: higher
[1]; spleen cells of orally treated mice, 0.5 μg/ml aCD3, 3 days
  proliferation of spleen cells: inhibition of cell proliferation was decreased
[2]; FIG. 4A
  Th17 cells in blood: significantly reduced
[2]; FIG. 4B
  Th17 cells in spleen: significantly reduced
[3]
  damage of the joint and cartilage (histology): damage of the joint and cartilage was not severe and maintained similarly to a normal mouse
[4]
  infiltration of IL-1b in joint: inhibited
  infiltration of IL-6 in joint: inhibited
  infiltration of IL-17 in joint: inhibited
  infiltration of Nitrothyrosine in joint: inhibited
  infiltration of TNF-a in joint: inhibited
[5]; differentiated adipocyte
  mRNA expression of Cytochrome C1: reduced depending on a concentration of rebamipide
  mRNA expression of GLTU: reduced depending on a concentration of rebamipide
  mRNA expression of Leptin: reduced depending on a concentration of rebamipide
  mRNA expression of aP2: reduced depending on a concentration of rebamipide
  mRNA expression of adiponectin: reduced depending on a concentration of rebamipide
  mRNA expression of c/EBP: reduced depending on a concentration of rebamipide
[5]; [8]
  level of brown fat gene Cidea: increased
  level of brown fat gene Cox7a1: increased
  level of brown fat gene Elov13: increased
  level of brown fat gene Fgf21: increased
[6]
  p-STAT3 s705 in spleen: decreased
  p-STAT3 s727 in spleen: decreased
[7]
  HDL-cholesterol in serum: slightly increased; also recorded: not statistically significant but increased
  LDL-cholesterol in serum: statistically significantly reduced; also recorded: statistically significantly decreased
  glucose in serum: statistically significantly reduced; also recorded: statistically significantly decreased
  total cholesterol in serum: statistically significantly reduced; also recorded: statistically significantly decreased
  triglyceride in serum: statistically significantly reduced; also recorded: statistically significantly decreased
